Experimental data: patent US12642856B2, “Degraders of hepatitis C virus NS3/4A protein” (DANA-FARBER CANCER INSTITUTE, INC., priority 2018, dated 2026)
Where two headings read alike, the source gives them in different places.

Columns and labels:
HCV NS3 fusion protein = target: T1, HCV NS3 fusion protein (UniProt P27958+Q96SW2); test: NS3 degradation competition assay with lenalidomide; assay type: cell-based, Hepatitis C virus; conditions: Western blot; for effect of lenalidomide on compound-induced degradation of NS3: excess of cereblon ligand lenalidomide
T1 construct: expressing the full-length HCV NS3 protein fused to eGFP; mCherry via FMVD 2A self-cleavage linker (C, cleaved yes); expressed in transfected cells
Text: The expression of the NS3 fusion protein was induced prior to the treatment of the NS3 expressing cells with an excess of the cereblon ligand lenalidomide.
FIG. 3 is a photograph of a Western blot showing degradation of HCV NS3 in the absence and presence of lenalidomide.

[1] = system: HCV subgenomic replicon in Huh7.5 cells; test: Antiviral subgenomic replicon assay; assay type: cell-based; conditions: Hepatitis C virus, read-out: IC50, 50% reduction in reporter (luciferase) expression levels
Procedure: (§1) The antiviral activity of the degraders was evaluated in cell culture in a subgenomic replicon assay and an infectious assay. In the subgenomic replicon assay, the hepatoma cell line Huh7.5 was transfected with a HCV subgenomic replicon and treated with small molecules. The luciferase activity encoded by the subgenomic replicon served as a measure for viral replication. In the infectious assay, Huh7.5 cells were infected with HCV, and treated with small molecules. The amount of infectious virus released to the supernatants after treatment with the small molecule degraders served as a measure for their antiviral activity. […] The activity of the compounds described herein is dependent on protein degradation mediated by the cereblon E3 ligase, as HCV NS3 levels are partially rescued in the cereblon-deficient Huh7.5 cell line.
Huh7.5 cells were electroporated with the HCV subgenomic replicon and treated after 24 hours with a range of small molecule concentrations. The luciferase activity encoded by the replicon was measured in cells at 48 hours post-electroporation/24 hours post-treatment. The concentration of compound that led to a 50% reduction in reporter expression levels (IC50) was determined by non-linear regression.

[2] = target: T2, full-length HCV NS3 protein fused to eGFP (UniProt P27958+Q96SW2); test: Transient cellular HCV NS3 degradation assay; assay type: cell-based, Hepatitis C virus; conditions: for degradation of HCV NS3 by Western blot: 4-hour and 24-hour treatments, NS3-eGFP and NS3-eGFP-mCherry fusion proteins; for DC50: read-out: IC50, concentration that led to a 50% reduction in NS3-eGFP accumulation, flow cytometry; for DC50 / degradation of transiently expressed HCV NS3 (decrease in NS3-eGFP abundance): 4 hour treatment; for degradation of transiently expressed HCV NS3 (decrease in NS3-eGFP abundance): increasing concentrations
T2 construct: expressing the full-length HCV NS3 protein fused to eGFP; mCherry via FMVD 2A self-cleavage linker (C, cleaved yes); expressed in transfected cells
Text: A system was set up to monitor NS3 degradation in the absence of other processes of the infectious viral cycle. […] Expressed in the absence of its cofactor, NS4A, the NS3 protein lacks any enzymatic activity, and the abundance of the NS3-eGFP fusion protein can be reliably monitored by eGFP fluorescence. Since the mCherry portion of the fusion protein is cleaved off during translation, its abundance in cells is not affected by small molecule-induced degradation of NS3-eGFP, and thus it serves as a control for protein expression. […]
The NS3 expressing cells were treated with increasing concentrations of compounds 13 and 22 for 4 hours. […] Compound 11 is an alpha-hydroxylamide analog of compound 13 that cannot form a covalent bond with the catalytic serine of the HCV NS3/4A protease due to a modification of the α-ketoamide group. […] The NS3 expressing cells were treated with increasing concentrations of compounds for 4 hours.

wildtype HCV = test: Viral resistance assay, wildtype HCV; assay type: cell-based; conditions: Hepatitis C virus, Huh7.5, read-out: IC50, 50% reduction in viral titers
Procedure: (§2) Mutations A156S and V55A, two well-characterized resistance mutations that are located in the active site of the HCV NS3 protease where telaprevir binds, were selected. Infectious HCV clones bearing the NS3-V55A mutation or the NS3-A156S mutation were generated.
(§3) Huh7.5 cells were infected with wildtype HCV, or the telaprevir-resistant mutant viruses, HCV(NS3-V55A) and HCV(NS3-A156S). Cells were treated 24 hours after infection with a range of small molecule concentrations. The amount of infectious virus released to the supernatants at 48 hours post-infection/24 hours post-treatment was measured using a 50% tissue infectious dose (TCID50) assay. The concentration of compound that led to a 50% reduction in viral titers (IC50) was determined by non-linear regression.

HCV(NS3-V55A) = test: Viral resistance assay, HCV(NS3-V55A); assay type: cell-based, Hepatitis C virus
Procedure: as §2, §3

HCV in Huh7.5 cells = test: Antiviral infectious assay (TCID50); assay type: cell-based, Hepatitis C virus; conditions: for IC50: Hepatitis C virus, read-out: IC50, 50% reduction in viral titers
Procedure: as §1
as §3, with “HCV” for “wildtype HCV, or the telaprevir-resistant mutant viruses, HCV(NS3-V55A)”, “and” for “and HCV(NS3-A156S). Cells were”, “treated after” for “treated”, “hours” for “hours after infection”

HCV(NS3-A156S) = test: Viral resistance assay, HCV(NS3-A156S); assay type: cell-based, Hepatitis C virus
Procedure: as §2, §3

[3] = Huh7.5 cells, 48 hours post-electroporation/24 hours post-treatment
[4] = Huh7.5 cells, 48 hours post-infection/24 hours post-treatment, TCID50

Question: Which “degradation of NS3 in the presence or absence of lenalidomide” value (HCV NS3 fusion protein) does the source give for `CCC[C@H](NC(=O)[C@@H]1[C@H]2CCC[C@H]2CN1C(=O)[C@@H](NC(=O)[C@@H](NC(=O)c1cnc(C(=O)NCCOCCOCCNc2cccc3c2C(=O)N(C2CCC(=O)N(C)C2=O)C3=O)cn1)C1CCCCC1)C(C)(C)C)C(=O)C(=O)NC1CC1` (stereo partly shown) [Compound 20] here?
Answer: The value was “no significant degradation of NS3”.

Question: With `CCC[C@H](NC(=O)[C@@H]1[C@H]2CCC[C@H]2CN1C(=O)[C@@H](NC(=O)[C@@H](NC(=O)c1cnc(C(=O)NCCCCCCCC(=O)Nc2cccc3c2CN(C2CCC(=O)NC2=O)C3=O)cn1)C1CCCCC1)C(C)(C)C)C(=O)C(=O)NC1CC1` (stereo partly drawn) [Compound 4, N2-((S)-1-cyclohexyl-2-((S)-1-((1S,3aR,6aS)-1-((S)-1-(cyclopropylamino)-1,2-dioxohexan-3-ylcarbamoyl)hexahydrocyclopenta[c]pyrrol-2(1H)-yl)-3,3-dimethyl-1-oxobutan-2-ylamino)-2-oxoethyl)-N5-(8-(2-(2,6-dioxopiperidin-3-yl)-1-oxoisoindolin-4-ylamino)-8-oxooctyl)pyrazine-2,5-dicarboxamide] as the compound, how does the IC50 [1, 3] read?
Answer: Its IC50 is 1320 nM.

Question: And the “effect of lenalidomide on compound-induced degradation of NS3” value (“effect of lenalidomide” below) (HCV NS3 fusion protein)?
Answer: The value was “Lenalidomide inhibited degradation of NS3”.

Question: And the “degradation of HCV NS3 by Western blot” value [2]?
Answer: The value was “specific reduction in steady-state abundance”.

Question: What about the DC50 [2] of the same compound?
Answer: Its DC50 is 2680 nM.

Question: Which IC50 (wildtype HCV) does the source give for `CCC[C@H](NC(=O)[C@@H]1[C@H]2CCC[C@H]2CN1C(=O)[C@@H](NC(=O)[C@@H](NC(=O)c1cnccn1)C1CCCCC1)C(C)(C)C)C(=O)C(=O)NC1CC1` [telaprevir, reference compound] here?
Answer: Its IC50 is 98 nM.

Question: What about the “change in antiviral potency, NS3-V55A vs wildtype” value (HCV(NS3-V55A)) of the same compound?
Answer: The value was 3 fold.

Question: What about the IC50 ([1]; Huh7.5, 48 h) of the same compound?
Answer: The IC50 was 240 nM.

Question: And the IC50 (HCV in Huh7.5 cells; Huh7.5, 48 h)?
Answer: The IC50 was 138 nM.

Question: What about the “change in antiviral potency, NS3-A156S vs wildtype” value (HCV(NS3-A156S)) of the same compound?
Answer: Its value is 10 fold.

Question: And the “degradation of transiently expressed HCV NS3 (decrease in NS3-eGFP abundance)” value (“degradation … (decrease in NS3-eGFP abundance)” below) [2]?
Answer: The value was “not observed”.

Question: `CCC[C@H](NC(=O)[C@@H]1[C@H]2CCC[C@H]2CN1C(=O)[C@@H](NC(=O)[C@@H](NC(=O)c1cnc(C(=O)NCCOCCOCCNc2cccc3c2C(=O)N(C2CCC(=O)NC2=O)C3=O)cn1)C1CCCCC1)C(C)(C)C)C(O)C(=O)NC1CC1` (stereo partly drawn) [Compound 11, N2-((1S)-1-cyclohexyl-2-((2S)-1-((1S,3aR,6aS)-1-((3S)-1-(cyclopropylamino)-2-hydroxy-1-oxohexan-3-ylcarbamoyl)hexahydrocyclopenta[c]pyrrol-2(1H)-yl)-3,3-dimethyl-1-oxobutan-2-ylamino)-2-oxoethyl)-N5-(2-(2-(2-(2-(2,6-dioxopiperidin-3-yl)-1,3-dioxoisoindolin-4-ylamino)ethoxy)ethoxy)ethyl)pyrazine-2,5-dicarboxamide] was tested. Which “degradation … (decrease in NS3-eGFP abundance)” value [2] did it give?
Answer: Its value is “did not mediate degradation”.

Question: What does the source list for `CCC[C@H](NC(=O)[C@@H]1[C@H]2CCC[C@H]2CN1C(=O)[C@@H](NC(=O)[C@@H](NC(=O)c1cnc(C(=O)NCCOCCOCCOc2cc3c4c(cccc4c2)C(=O)N(C2CCC(=O)NC2=O)C3=O)cn1)C1CCCCC1)C(C)(C)C)C(=O)C(=O)NC1CC1` (stereo partly drawn) [Compound 13, N2-((S)-1-cyclohexyl-2-((S)-1-((1S,3aR,6aS)-1-((S)-1-(cyclopropylamino)-1,2-dioxohexan-3-ylcarbamoyl)hexahydrocyclopenta[c]pyrrol-2(1H)-yl)-3,3-dimethyl-1-oxobutan-2-ylamino)-2-oxoethyl)-N5-(2-(2-(2-(2-(2,6-dioxopiperidin-3-yl)-1,3-dioxo-2,3-dihydro-1H-benzo[de]isoquinolin-5-yloxy)ethoxy)ethoxy)ethyl)pyrazine-2,5-dicarboxamide]?
Answer: IC50 (wildtype HCV): 522 nM; IC50 (HCV(NS3-V55A); read-out: IC50, 50% reduction in viral titers, HCV(NS3-V55A), Huh7.5, TCID50): 508 nM; IC50 (HCV in Huh7.5 cells; [4]): 744 nM; antiviral activity compared with telaprevir (HCV in Huh7.5 cells; subgenomic replicon and infectious assays, Huh7.5): antiviral potency close to that of the parental compound; change in antiviral potency, NS3-A156S vs wildtype (HCV(NS3-A156S)): 3 fold; IC50 (HCV(NS3-A156S); read-out: IC50, 50% reduction in viral titers, HCV(NS3-A156S), Huh7.5, TCID50): 1560 nM; effect of lenalidomide on compound-induced degradation of NS3 (HCV NS3 fusion protein): Lenalidomide inhibited degradation of NS3; DC50 [2]: 50 nM

Question: With `CCC[C@H](NC(=O)[C@@H]1[C@H]2CCC[C@H]2CN1C(=O)[C@@H](NC(=O)[C@@H](NC(=O)c1cnc(C(=O)NCCOCCOCCOc2cc3c4c(cccc4c2)C(=O)N(C2CCC(=O)N(C)C2=O)C3=O)cn1)C1CCCCC1)C(C)(C)C)C(=O)C(=O)NC1CC1` (stereo partly drawn) [Compound 22, N2-((S)-1-cyclohexyl-2-((S)-1-((1S,3aR,6aS)-1-((S)-1-(cyclopropylamino)-1,2-dioxohexan-3-ylcarbamoyl)hexahydrocyclopenta[c]pyrrol-2(1H)-yl)-3,3-dimethyl-1-oxobutan-2-ylamino)-2-oxoethyl)-N5-(2-(2-(2-(2-(1-methyl-2,6-dioxopiperidin-3-yl)-1,3-dioxo-2,3-dihydro-1H-benzo[de]isoquinolin-5-yloxy)ethoxy)ethoxy)ethyl)pyrazine-2,5-dicarboxamide] as the compound, how does the “degradation of NS3 in the presence or absence of lenalidomide” value (HCV NS3 fusion protein) read?
Answer: Its value is “no significant degradation of NS3”.

Question: And the “degradation … (decrease in NS3-eGFP abundance)” value [2]?
Answer: The value was “did not degrade HCV NS3”.

Question: What about the “binding to cereblon (concluded from degradation assay)” value ([2]; N-methylated glutarimide negative controls) of the same compound?
Answer: Its value is “unable to bind cereblon”.

Question: `CCC[C@H](NC(=O)[C@@H]1[C@H]2CCC[C@H]2CN1C(=O)[C@@H](NC(=O)[C@@H](NC(=O)c1cnc(C(=O)NCCOCCOCCNc2cccc3c2C(=O)N(C2CCC(=O)NC2=O)C3=O)cn1)C1CCCCC1)C(C)(C)C)C(=O)C(=O)NC1CC1` (stereo partly drawn) [Compound 3, N2-((S)-1-cyclohexyl-2-((S)-1-((1S,3aR,6aS)-1-((S)-1-(cyclopropylamino)-1,2-dioxohexan-3-ylcarbamoyl)hexahydrocyclopenta[c]pyrrol-2(1H)-yl)-3,3-dimethyl-1-oxobutan-2-ylamino)-2-oxoethyl)-N5-(2-(2-(2-(2-(2,6-dioxopiperidin-3-yl)-1,3-dioxoisoindolin-4-ylamino)ethoxy)ethoxy)ethyl)pyrazine-2,5-dicarboxamide] was tested. Which IC50 [1, 3] did it give?
Answer: Its IC50 is 2620 nM.

Question: What about the IC50 (HCV in Huh7.5 cells; [4]) of the same compound?
Answer: The IC50 was 2920 nM.

Question: What about the “effect of lenalidomide” value (HCV NS3 fusion protein) of the same compound?
Answer: Its value is “Lenalidomide inhibited degradation of NS3”.

Question: What about the “degradation of HCV NS3 by Western blot” value [2] of the same compound?
Answer: Its value is “specific reduction in steady-state abundance”.

Question: With `CCC[C@H](NC(=O)[C@@H]1[C@H]2CCC[C@H]2CN1C(=O)[C@@H](NC(=O)[C@@H](NC(=O)c1cnc(C(=O)NCCCCCCNc2cccc3c2CN(C2CCC(=O)NC2=O)C3=O)cn1)C1CCCCC1)C(C)(C)C)C(=O)C(=O)NC1CC1` (stereo partly drawn) [Compound 1, N2-((S)-1-cyclohexyl-2-((S)-1-((1S,3aR,6aS)-1-((S)-1-(cyclopropylamino)-1,2-dioxohexan-3-ylcarbamoyl)hexahydrocyclopenta[c]pyrrol-2(1H)-yl)-3,3-dimethyl-1-oxobutan-2-ylamino)-2-oxoethyl)-N5-(6-(2-(2,6-dioxopiperidin-3-yl)-1-oxoisoindolin-4-ylamino)hexyl)pyrazine-2,5-dicarboxamide] as the compound, how does the IC50 ([1]; Huh7.5, 48 h) read?
Answer: The IC50 was 3040 nM.

Question: What about the “effect of lenalidomide” value (HCV NS3 fusion protein) of the same compound?
Answer: Its value is “Lenalidomide inhibited degradation of NS3”.

Question: And the “degradation of HCV NS3 by Western blot” value [2]?
Answer: Its value is “specific reduction in steady-state abundance”.

Question: And the DC50 [2]?
Answer: Its DC50 is 669 nM.
